{
  "source": "patent US6770020B2",
  "about": "(priority 2001, dated 2004)",
  "key": {"[1]": {"system": "human glioblastoma cells (TB 10)", "assay": "Gd-DTPA toxicity by cell counting", "assay_type": "cell-based", "protocol": "Two effects that may affect the Gd-DTPA uptake kinetics were examined: compound toxicity and cell density. Three independent series of cell cultures were grown at different densities and exposed for up to 120 hours. Cell counting performed at the end of the incubation time either in control or in Gd-treated cultures gave the same cell number.\nIn addition, some of the cells exposed to Gd-DTPA for 120 hours were re-plated."}, "LD50 in rats": {"assay": "LD50 in rats", "assay_type": "in vivo", "settings": "70 kg human, assuming a similar LD50 in man"}, "[2]": {"system": "human glioblastoma cells (TB 10)", "assay": "ICP-MS Gd release/retention after Gd-DTPA wash-out", "settings": "10 mg/ml 72 hours"}, "[3]": {"system": "human glioblastoma cells (TB 10)", "assay": "TOF-SIMS analysis of Gd in individual cells", "assay_type": "cell-based", "from_the_text": "Time of Flight Secondary Ion Mass-Spectrometry (TOF-SIMS), another technique for microchemical analysis^(22) was utilized to validate data from MEPHISTO spectromicroscopy, in addition to the ICP-MS data. Cell samples were bombarded with either 15 or 25 keV Ga^+ ions, focused in a microscopic beam, which induced desorption of the surface atoms. The emitted ions were then accelerated, and detected by a high resolution mass spectrometer. By scanning the microscopic Ga ion beam, TOF-SIMS produced images of the cell surface, and distribution maps of specific element isotopes, with a spatial resolution of […]. High resolution mass spectra were obtained from microscopic areas, selected as the region of interest in the cell images, to allow quantitative comparison of Gd concentration in sub-cellular regions.\nThe results obtained in MEPHISTO were corroborated by the TOF-SIMS) data, an independent technique to evaluate elemental distributions at a microscopic scale. Two cells were studied from one of the etched 72-hour exposure samples used in the MEPHISTO experiment. Note in the table that the concentration of Gd is consistently higher in nuclei than in cytoplasm.\nTOF-SIMS analysis of a non-etched cell at the nucleus position (also Gd-exposed for 72 hours), was performed before and after strong sputtering to probe the Gd concentration on the membrane and inside the nucleus. The total Gd ion yield, calculated as for the first column of Table 2, gave 0.055 cts/s on the unsputtered sample.\nAfter 30 second sputtering (with 25 keV Ga˜ ions) to remove surface contamination, the total Gd ion yield from the cell membrane was 0.182 cts/s. After 16 minute sputtering to penetrate about […] into the nucleus, the total Gd ion yield was 1.844 cts/s."}, "[4]": {"system": "human glioblastoma cells (TB 10)", "assay": "ICP-MS Gd uptake by glioblastoma cell cultures exposed to Gd-DTPA", "settings": "for cellular Gd concentration: 10 mg/ml Gd-DTPA"}, "[5]": {"settings": "Cell 1, Cytoplasm, 72 hours exposure"}, "[6]": {"settings": "Cell 1, Nucleus, 72 hours exposure"}, "[7]": {"settings": "Cell 2, Cytoplasm, 72 hours exposure"}, "[8]": {"settings": "Cell 2, Nucleus, 72 hours exposure"}},
  "note": "Entries after “also recorded” stand apart in the source; their conditions may differ.",
  "data": [
    {"smiles": "O=C([O-])CN(CCN(CC(=O)[O-])CC(=O)O)CCN(CC(=O)[O-])CC(=O)O.[Gd+3]", "note": "[Gd-DTPA, gadolinium diethylene triamine pentaacetic acid]", "values": [
      {"measurement": "growth and morphology after re-plating", "setting": "[1]; cells exposed 120 hours, re-plated, after one week", "result": "grew normally"},
      {"measurement": "cytotoxic or cytostatic effect (cell counting vs. unexposed controls)", "setting": "[1]; different concentrations of Gd-DTPA, 72 hours", "result": "not cytotoxic or cytostatic"},
      {"measurement": "cytotoxic or cytostatic effect (cell counting vs. control)", "setting": "[1]; exposed for up to 120 hours", "result": "did not show any cytotoxic or cytostatic effect; also recorded: no toxic effects; also recorded: no effect on cell survival"},
      {"measurement": "amount injected for a 50% chance of killing", "setting": "LD50 in rats", "result": "more than 850 g"},
      {"measurement": "immediate loss of Gd from the cell bodies after wash-out", "setting": "[2]; FIG. 4", "result": "about 80%"},
      {"measurement": "intracellular retained Gd concentration", "setting": "[2]; then two to four hours in physiological solution", "result": 140, "unit": "µg/mL"},
      {"measurement": "Ratio nucleus:cytoplasm, ^155Gd", "setting": "[3]; Cell 1, 72 hours exposure", "result": 2.51},
      {"measurement": "Ratio nucleus:cytoplasm, ^155GdO", "setting": "[3]; Cell 1, 72 hours exposure", "result": 2.52},
      {"measurement": "Ratio nucleus:cytoplasm, ^156Gd", "setting": "[3]; Cell 1, 72 hours exposure", "result": 1.89},
      {"measurement": "Ratio nucleus:cytoplasm, ^156GdO", "setting": "[3]; Cell 1, 72 hours exposure", "result": 2.03},
      {"measurement": "Ratio nucleus:cytoplasm, ^157GdO", "setting": "[3]; Cell 1, 72 hours exposure", "result": 2.06},
      {"measurement": "Ratio nucleus:cytoplasm, ^158Gd", "setting": "[3]; Cell 1, 72 hours exposure", "result": 1.53},
      {"measurement": "Ratio nucleus:cytoplasm, ^160Gd", "setting": "[3]; Cell 1, 72 hours exposure", "result": 1.99},
      {"measurement": "Ratio nucleus:cytoplasm, ^160GdO", "setting": "[3]; Cell 1, 72 hours exposure", "result": 2.00},
      {"measurement": "Ratio nucleus:cytoplasm, total Gd ion yield", "setting": "[3]; Cell 1, 72 hours exposure", "result": 2.02},
      {"measurement": "Detection Rate, ^155Gd", "setting": "[3]; [5]", "result": 0.41, "unit": "Counts/s"},
      {"measurement": "Detection Rate, ^155GdO", "setting": "[3]; [5]", "result": 0.63, "unit": "Counts/s"},
      {"measurement": "Detection Rate, ^156Gd", "setting": "[3]; [5]", "result": 0.91, "unit": "Counts/s"},
      {"measurement": "Detection Rate, ^156GdO", "setting": "[3]; [5]", "result": 0.91, "unit": "Counts/s"},
      {"measurement": "Detection Rate, ^157GdO", "setting": "[3]; [5]", "result": 2.08, "unit": "Counts/s"},
      {"measurement": "Detection Rate, ^158Gd", "setting": "[3]; [5]", "result": 0.89, "unit": "Counts/s"},
      {"measurement": "Detection Rate, ^160Gd", "setting": "[3]; [5]", "result": 0.68, "unit": "Counts/s"},
      {"measurement": "Detection Rate, ^160GdO", "setting": "[3]; [5]", "result": 0.94, "unit": "Counts/s"},
      {"measurement": "Detection Rate, total Gd ion yield", "setting": "[3]; [5]", "result": 6.44, "unit": "Counts/s"},
      {"measurement": "Detection Rate, ^155Gd", "setting": "[3]; [6]", "result": 1.03, "unit": "Counts/s"},
      {"measurement": "Detection Rate, ^155GdO", "setting": "[3]; [6]", "result": 1.59, "unit": "Counts/s"},
      {"measurement": "Detection Rate, ^156Gd", "setting": "[3]; [6]", "result": 1.72, "unit": "Counts/s"},
      {"measurement": "Detection Rate, ^156GdO", "setting": "[3]; [6]", "result": 1.85, "unit": "Counts/s"},
      {"measurement": "Detection Rate, ^157GdO", "setting": "[3]; [6]", "result": 2.23, "unit": "Counts/s"},
      {"measurement": "Detection Rate, ^158Gd", "setting": "[3]; [6]", "result": 1.36, "unit": "Counts/s"},
      {"measurement": "Detection Rate, ^160Gd", "setting": "[3]; [6]", "result": 1.35, "unit": "Counts/s"},
      {"measurement": "Detection Rate, ^160GdO", "setting": "[3]; [6]", "result": 1.88, "unit": "Counts/s"},
      {"measurement": "Detection Rate, total Gd ion yield", "setting": "[3]; [6]", "result": 12.98, "unit": "Counts/s"},
      {"measurement": "Ratio nucleus:cytoplasm, ^155Gd", "setting": "[3]; Cell 2, 72 hours exposure", "result": 1.60},
      {"measurement": "Ratio nucleus:cytoplasm, ^155GdO", "setting": "[3]; Cell 2, 72 hours exposure", "result": 1.34},
      {"measurement": "Ratio nucleus:cytoplasm, ^156Gd", "setting": "[3]; Cell 2, 72 hours exposure", "result": 1.86},
      {"measurement": "Ratio nucleus:cytoplasm, ^156GdO", "setting": "[3]; Cell 2, 72 hours exposure", "result": 1.41},
      {"measurement": "Ratio nucleus:cytoplasm, ^157GdO", "setting": "[3]; Cell 2, 72 hours exposure", "result": 1.56},
      {"measurement": "Ratio nucleus:cytoplasm, ^158Gd", "setting": "[3]; Cell 2, 72 hours exposure", "result": 1.84},
      {"measurement": "Ratio nucleus:cytoplasm, ^160Gd", "setting": "[3]; Cell 2, 72 hours exposure", "result": 1.63},
      {"measurement": "Ratio nucleus:cytoplasm, ^160GdO", "setting": "[3]; Cell 2, 72 hours exposure", "result": 1.72},
      {"measurement": "Ratio nucleus:cytoplasm, total Gd ion yield", "setting": "[3]; Cell 2, 72 hours exposure", "result": 1.60},
      {"measurement": "Detection Rate, ^155Gd", "setting": "[3]; [7]", "result": 0.23, "unit": "Counts/s"},
      {"measurement": "Detection Rate, ^155GdO", "setting": "[3]; [7]", "result": 0.38, "unit": "Counts/s"},
      {"measurement": "Detection Rate, ^156Gd", "setting": "[3]; [7]", "result": 0.37, "unit": "Counts/s"},
      {"measurement": "Detection Rate, ^156GdO", "setting": "[3]; [7]", "result": 0.51, "unit": "Counts/s"},
      {"measurement": "Detection Rate, ^157GdO", "setting": "[3]; [7]", "result": 0.57, "unit": "Counts/s"},
      {"measurement": "Detection Rate, ^158Gd", "setting": "[3]; [7]", "result": 0.32, "unit": "Counts/s"},
      {"measurement": "Detection Rate, ^160Gd", "setting": "[3]; [7]", "result": 0.33, "unit": "Counts/s"},
      {"measurement": "Detection Rate, ^160GdO", "setting": "[3]; [7]", "result": 0.5, "unit": "Counts/s"},
      {"measurement": "Detection Rate, total Gd ion yield", "setting": "[3]; [7]", "result": 3.21, "unit": "Counts/s"},
      {"measurement": "Detection Rate, ^155Gd", "setting": "[3]; [8]", "result": 0.37, "unit": "Counts/s"},
      {"measurement": "Detection Rate, ^155GdO", "setting": "[3]; [8]", "result": 0.51, "unit": "Counts/s"},
      {"measurement": "Detection Rate, ^156Gd", "setting": "[3]; [8]", "result": 0.69, "unit": "Counts/s"},
      {"measurement": "Detection Rate, ^156GdO", "setting": "[3]; [8]", "result": 0.72, "unit": "Counts/s"},
      {"measurement": "Detection Rate, ^157GdO", "setting": "[3]; [8]", "result": 0.89, "unit": "Counts/s"},
      {"measurement": "Detection Rate, ^158Gd", "setting": "[3]; [8]", "result": 0.59, "unit": "Counts/s"},
      {"measurement": "Detection Rate, ^160Gd", "setting": "[3]; [8]", "result": 0.54, "unit": "Counts/s"},
      {"measurement": "Detection Rate, ^160GdO", "setting": "[3]; [8]", "result": 0.86, "unit": "Counts/s"},
      {"measurement": "Detection Rate, total Gd ion yield", "setting": "[3]; [8]", "result": 5.13, "unit": "Counts/s"},
      {"measurement": "total Gd ion yield", "setting": "[3]; non-etched cell at the nucleus position, 72 hours exposure, unsputtered sample", "result": 0.055, "unit": "cts/s"},
      {"measurement": "total Gd ion yield from the cell membrane", "setting": "[3]; non-etched cell, 72 hours exposure, after 30 second sputtering", "result": 0.182, "unit": "cts/s"},
      {"measurement": "total Gd ion yield", "setting": "[3]; non-etched cell, 72 hours exposure, after 16 minute sputtering to penetrate about 1 pm into the nucleus", "result": 1.844, "unit": "cts/s"},
      {"measurement": "cellular Gd concentration", "setting": "[4]; 120-hour exposure (maximum)", "result": 600, "unit": "µg/mL"},
      {"measurement": "cellular Gd concentration", "setting": "[4]; after 24 hours", "result": "more than 250 μg/ml"},
      {"measurement": "cellular Gd concentration vs. exposure time", "setting": "[4]; 10 mg/ml, up to 120 hours, FIG. 1", "result": "increases with the exposure time"},
      {"measurement": "concentration of uptaken Gd vs. exposure concentration", "setting": "[4]; 1 to 25 mg/ml Gd-DTPA, 72 hours, FIG. 3", "result": "increases with the exposure concentration"},
      {"measurement": "maximum cellular concentration relative to the 250 μg/ml recommended for GdNCT", "setting": "[4]; 120-hour exposure", "result": 2.4, "unit": "times"}
    ]}
  ]
}
